Key:
[1] = tested on: cytochrome P450 2B1-negative cells (parental 9L and 9L-Z); test: Drug sensitivity of cultured 9L cells; format: cell-based, rat; conditions: 5 days
Description: (§1) To test for drug sensitivity, 1×10^5 cells were plated in 30-mm tissue culture plates (Falcon 3046) in duplicate. Drugs were added 18-24 hours after seeding. Cells were allowed to grow for times ranging up to 5 days after drug treatment, and the final cell number was then determined. Cells were rinsed with phosphate buffered saline or Hank's buffered saline, dispersed using trypsin-EDTA (GIBCO/BRL, Inc.), and then counted with a hemocytometer. Results are expressed as a growth ratio, i.e., the number of cells in plates containing drug as a percentage of the corresponding drug-free controls (mean±range of duplicate determinations).

[2] = tested on: cytochrome P450 2B1-positive cells (9L-ZP and L450-2); conditions: 5 days
[3] = tested on: C6 cells exposed to CM from C6; test: C6 colony formation after conditioned medium from drug-exposed cells; format: cell-based, rat; conditions: Table V panel C; CM from treated C6 cultures
[4] = tested on: C6 cells; test: Cell proliferation assay; format: cell-based, rat; conditions: 0.5 mM, four days
Description: Cell proliferation assays: For cell proliferation assays, cells (2×10^5 per dish, unless otherwise noted) were plated onto 10 cm dishes. […] Incubations were continued for four days and cell numbers were assayed using a Coulter counter (Coulter Electronics Inc.), after harvesting in trypsinEDTA.

[5] = tested on: C6 cells; test: Trypsinization and replating assay; format: cell-based, rat; conditions: Table V panel B; survivors of panel A replated, nine days
Description: Trypsinization and replating assay: To determine the temporal kinetics of CPA-mediated cytotoxicity, 2×10^6 cells were plated onto each 10 cm dish. Twenty-four hours later, 0.5 mM CPA was added and cells were incubated for the times indicated in each figure. Cells were then trypsinized and replated at a density of 2×10^5 cells/10 cm dish. Nine days later, cell numbers were evaluated by Coulter counting.

[6] = tested on: parental 9L cells co-cultured with 9L-ZP cells; test: Co-culture experiments with culture inserts; format: cell-based, rat; conditions: 10 μM metyrapone
Description: Co-culture Experiments: Parental 9L cells were plated in the bottom wells of culture plates (Falcon 3502), and cytochrome P450 2B1-negative or cytochrome P450 2B1-positive cells were plated into 25 mm cell culture inserts (0.45 μm pore size, Falcon 3090). Culture media were removed 18-24 hours later by aspiration. Culture medium without drug (1.0 mL) was added to the bottom well, and 1.0 mL medium containing drug was added to the upper cell culture insert. Cell numbers were determined 5 days later, as described above.

[7] = tested on: mixed culture of 9L and 9L-ZP cells; test: Cytotoxicity toward mixed cultures; format: cell-based, rat; conditions: 10 μM metyrapone
Description: FIG. 28 is a bar graph depicting the cytotoxicity of oxazaphosphorines toward mixed cultures of 9L and 9L-ZP cells. Equal numbers of parental 9L cells were mixed with 9L-ZP cells (total initial cell number=1×10^5 /30 mm tissue culture dish). […] Cell numbers were determined 5 days after beginning drug treatment. Data (mean ±range of duplicates) are expressed as growth ratio (%) relative to drug-free controls.
as §1

[8] = tested on: 9L-ZP cells; test: Drug sensitivity of cultured 9L cells with or without metyrapone; conditions: 10 μM metyrapone

SMILES: O=P1(N(CCCl)CCCl)NC(OO)CCO1 (centres unmarked) [4-hydroperoxy cyclophosphamide]
- Sensitivity to activated cyclophosphamide [1]: inherently sensitive
- Sensitivity to activated cyclophosphamide [2]: inherently sensitive

SMILES: CCN(CC)P1(=O)NCCCO1 (centres unmarked) [DCPA, didechlorocyclophosphamide]
- Secretion effect, C6 colony number [3]: 301±4.6
- Effect on cell proliferation [4]: had no effect
- Cell proliferation assay, number of cells ([4]; Table V panel A): 21.51±0.43 ×10^6
- Trypsinization and replating assay, cell count [5]: 20.58±0.33

SMILES: CC(C)(C(=O)c1cccnc1)c1cccnc1 [metyrapone]
- Effect on cyclophosphamide killing of both cell populations [6]: effectively blocked
- Effect on cyclophosphamide killing of mixed culture [7]: largely abrogate
- Effect on cytotoxic effect of 4-hydroperoxy cyclophosphamide ([8]; 10 μM 4-hydroperoxy cyclophosphamide): did not block
- Effect on cytotoxic effects of cyclophosphamide ([8]; 1 mM cyclophosphamide): nearly eliminated
- Effect on cytotoxic effects of ifosphamide ([8]; 2 mM ifosphamide): nearly eliminated
